# Data from patent US20250018019A1, “TREATMENT OF INTERFERON DRIVEN INFLAMMATION” (The Provost, Fellows, Foundation Scholars and the other …, priority 2023, published 2025).
# Counter-ions that a name gives are not always drawn.
# Legend:
# [1] = system: human PBMCs; assay: ELISA of IFN-β release from human PBMCs; format: cell-based; settings: human PBMCs pre-treated, LPS 4 h
# Procedure: Human blood samples from healthy donors were collected and processed at the School of Biochemistry and Immunology in TBSI (TCD). Blood samples were obtained anonymously and written informed consent for the use of blood for research purposes has been obtained from the donors. All the procedures involving experiments on human samples have been approved by the School of Biochemistry and Immunology Research Ethics Committee (TCD). Experiments were conducted according to the TCD guide on good research practice, which follows the guidelines detailed in the National Institutes of Health Belmont Report (1978) and the Declaration of Helsinki. […] The remaining pellet of mononuclear cells was resuspended, counted, and plated at 1×10^6 cells/ml in RPMI supplemented with FCS (10%) and penicillin/streptomycin (1%). […]
# DuoSet ELISA kits for IL-1β, TNFα, IL-6, IL-10, and GDF15 were purchased from R&D Systems and were carried out according to the manufacturer's instructions with appropriately diluted cell supernatants added to each plate in duplicate or triplicate. IFN-β was determined using DuoSet ELISA kit from R&D Systems or Abcam (ab252363). […] Absorbance at 450 nm was quantified using a FLUOstar Optima plate reader. […]
# [2] = molecular target: T1, c-Fos (Mus musculus, UniProt P01101); assay: c-Fos activity assay (AP1 transcription factor assay on nuclear extracts); format: cell-based; settings: BMDMs pre-treated 3 h, LPS 4 h
# T1 construct: nuclear extracts were isolated using a Nuclear Extraction Kit; endogenous in cells; host or cells: mouse bone-marrow-derived macrophages (BMDMs), nuclear extract
# T1 sequence (P01101 whole entry): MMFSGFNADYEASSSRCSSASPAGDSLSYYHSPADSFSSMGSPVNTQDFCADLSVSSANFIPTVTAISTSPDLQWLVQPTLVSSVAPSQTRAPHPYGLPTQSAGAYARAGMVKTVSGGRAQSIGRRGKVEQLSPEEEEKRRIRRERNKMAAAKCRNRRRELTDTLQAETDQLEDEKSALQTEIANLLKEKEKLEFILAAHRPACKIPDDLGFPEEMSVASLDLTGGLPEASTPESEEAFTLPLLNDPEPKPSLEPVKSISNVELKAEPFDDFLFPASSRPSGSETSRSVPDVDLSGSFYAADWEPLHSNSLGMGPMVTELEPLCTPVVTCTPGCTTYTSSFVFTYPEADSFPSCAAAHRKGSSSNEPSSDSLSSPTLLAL
# T1 sequence (P05627 whole entry partner): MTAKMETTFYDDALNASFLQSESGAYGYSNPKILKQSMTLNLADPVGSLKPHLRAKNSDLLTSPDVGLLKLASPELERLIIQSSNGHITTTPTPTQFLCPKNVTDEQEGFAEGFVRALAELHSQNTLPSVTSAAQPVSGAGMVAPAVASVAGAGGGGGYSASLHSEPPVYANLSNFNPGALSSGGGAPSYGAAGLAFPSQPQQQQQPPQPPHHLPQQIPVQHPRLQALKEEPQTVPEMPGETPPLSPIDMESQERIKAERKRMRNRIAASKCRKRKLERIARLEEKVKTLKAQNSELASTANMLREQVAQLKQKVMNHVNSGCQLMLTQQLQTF
# Procedure: BMDMs from 3 mice were plated in 10 cm dishes at 0.5×10^6 cells/mL and left overnight. Cells were pre-treated with FHIN1 or DMF (3 h) prior to LPS stimulation (4 h). Upon harvesting, nuclear extracts were isolated using a Nuclear Extraction Kit (ab113474) purchased from Abcam. Nuclear extracts were quantified via BCA assay and standardised. c-Fos relative activity was then quantified using the AP1 transcription factor assay purchased from Abcam (Ab207196) according to the manufacturers protocol.
# [3] = system: BMDMs; assay: Flow cytometry, CellROX and TMRM staining; format: cell-based, mouse; settings: LPS 4 h; for mitochondrial membrane potential (MMP), TMRM staining: BMDMs pre-treated, oligomycin 10 μM, CCCP 50 μM, valinomycin 10 nM, MMF 50 or 100 μM
# Procedure: All compounds used DMSO as a vehicle except for 4-hydroxy tamoxifen (EtOH), NAC (PBS), and AOAA for tracing experiments (Media). LPS was used at a concentration of 100 ng/ml for indicated timepoints (2, 3, 4, 6, 8, 24, 48 h). FHIN1 (10 or 20 μM), MMF (50 or 100 μM), DMF (25 μM), AOAA (5 mM), oligomycin (10 μM), CCCP (50 μM) NAC (1 mM), and IMT1 (10 μM) pre-treatments were performed for 3 h prior the addition of LPS. Cells were treated with valinomycin (10 nM) 15 mins before LPS stimulation. Anti-CD210 or IgG control (10 μg/ml) antibodies were added to cells 1 h prior to LPS stimulation. Recombinant mouse IL-10 protein (100 ng/ml) was added to cells at the same time as LPS. Cells were treated with IFN-B1 (220 ng/ml) for 3 h. Cells were treated with C-178 (1 μM) 1 h prior to LPS stimulation or transfection with 2′3′-cGAMP (1.5 μg/ml) for 4 hrs to achieve cGAS-STING activation. Cells were treated with ODN 2088 (1 μM) for 1 hr prior to LPS stimulation or transfection with CPG ODN 1826 (1.5 μg/ml) to achieve TLR9 activation. 3 different timepoints of 4-hydroxy tamoxifen (TAM) (600 nM or 2 μM) or EtOH treatment were performed-these are specified in the individual figure legends. For ‘48 h’ treatments EtOH/TAM was added on day 5 of 6 during the BMDM differentiation protocol. On day 6 they were plated with EtOH/TAM (left overnight) and treated the following day. For ‘72 h’ treatments EtOH/TAM was added on day […] of 6 during the BMDM differentiation protocol. On day 6 they were plated with EtOH/TAM (left overnight) and treated the following day. For ‘96 h’ treatments EtOH/TAM was added on day […] of 6 during the BMDM differentiation protocol. On day 6 they were plated with EtOH/TAM and treated 2 days later.
# Cells were plated in 12-well plates and treated as desired. CellROX Green (5 μM, Thermo Fisher) or TMRM (20 nM, Thermo Fisher) was added to cells 30 mins prior to end of cell treatments. Cells were washed once in PBS and scraped into 200 μl FACS buffer (2 mM EDTA, 0.5% FCS in PBS). Acquisition of samples was performed on a BD Accuri C6 flow cytometer. The gating strategy used for all flow cytometry experiments consisted of debris exclusion by FSC-A vs SSC-A analysis and subsequent doublet exclusion by FSC-A vs FSC-H analysis. A sample gating strategy is provided in Supplementary FIG. 2. 10,000 cells was acquired per condition. Mean fluorescence intensity (MFI) was calculated for all cells in each condition using FlowJo v10.
c-Fos activation [2],Compound,LPS-induced IFN-β release [1],"mitochondrial membrane potential (MMP), TMRM staining [3]",reactive oxygen species (ROS) production (CellROX MFI) ([3]; BMDMs pre-treated 3 h)
strongly impaired,"COC(=O)/C=C/C(=O)OC [DMF, dimethyl fumarate]",suppressed,no effect,–
strongly impaired,"CCOC(=O)[C@@]12CCCC=C1N(Cc1ccc(-c3ccccc3)cc1)C(=O)[C@H]2CC(=O)NC [FHIN1, Fumarate hydratase-IN-1]",boosted,significantly increased staining,increased
